Test results from patent EP1222194B1, “7-ACYLAMINO-3-HETEROARYLTHIO-3-CEPHEM CARBOXYLIC ACID ANTIBIOTICS AND PRODRUGS THEREOF” (priority 1999, dated 2001).
≈ marks a conversion by molar mass, not a printed value.

Legend:
[1] = In vitro stability of compounds in rat serum; type: in vitro ADME; conditions: for degraded at 1 h: % loss after 60 min exposure to rat serum as determined by HPLC, 37 °C; for stability in rat serum (statement in words): compared with other 7-acylamino-3-heteroarylthio-3-cephem carboxylic acids
Protocol: In general, compounds from the class of 7-acylamino-3-heteroarylthio-3-cephem carboxylic acids have higher chemical reactivity and lower stability towards chemical or enzymatic decomposition than most typical cephalosporins. […] Results shown in Table 2 represent percentage loss of the initial amount of cephalosporin compound upon 60 min incubation in rat serum.
Procedure for measuring degree of degradation of cephalosporin compounds in rat serum was as follows:
Fresh control rat serum (heparinized and stored frozen) is preincubated at 37 °C for 15 min in a shaking water bath. pH is measured using test strips. 25 µL of a 2 mg/mL solution cephalosporin compound (in water) of is then added to each matrix to make 1000 µL. Solutions were incubated at 37 °C. 100ul of solution was taken out at time = 0, 15, 30, and 60 min post dose and added 200 µL 4% trichloroacetic acid, vortexed, and centrifuged for 10 min at 14,000 rpm in an Eppendorfmicrocentrifuge. 25 µL of each supernatant was injected onto HPLC. Experiment was repeated using 25 µL of a 0.2 mg/mL cephalosporin compound. Degradation is measured as the percentage of HPLC peak area at time t relative to peak area at time 0.
HPLC conditions: Beckman Ultrasphere C18 column. 5u. 4.6mm x 25cm. 1 mL/min of 95% 0.1 M ammonium acetate, pH 6, 5% ACN going to 75% buffer/organic over 20min. UV monitored at 254 and 280 nm.

[2] = test system: S. aureus ATCC 33593 (Meth^R); assay: Broth microdilution MIC (NCCLS); type: cell-based; conditions: Staphylococcus aureus, ATCC33593, Mueller-Hinton Broth, 24 h at 35 °C
Protocol: (§1) Compounds were evaluated for antimicrobial activity against a panel of bacterial strains using a broth microdilution assay performed as recommended by the NCCLS (1). The minimum inhibitory concentration (MIC) was defined as the lowest concentration of drug which prevented the growth of the bacteria. The following 16 organisms constituted the primary panel of evaluation:
(§2) For this primary panel, the assay was performed in Mueller-Hinton Broth (MHB) with a final bacterial inoculum of 5 x 10^5 CFU/mL (from an early-log phase culture) and a final volume of 100 µL. Control drugs, including imipenem, vancomycin, Penicillin G, dicloxacillin (vs. MSSA ATCC29213 only), and new compounds were prepared at a concentration equivalent to 2-fold the desired final concentration. Dilution of compounds were prepared directly in the plates by serial 2-fold dilution using a multichannel pipette. Positive and negative growth control were included in each plate.
(§3) The bacterial inocula were prepared as follows. For each strain one isolated colony was used to inoculate a volume of 8 mL of Mueller-Hinton broth and these cultures were incubated overnight (20h) at 35 °C in a shaking incubator. At the exception of Enterococcus strains, culture were then diluted 1:10 and allowed to grow for an additional one hour at 35 °C in a shaking incubator. The inocula were prepared by diluting the early log-phase (1h) cultures 1:1000 with fresh Mueller-Hinton broth. E. faecium and E. faecalis were prepared by diluting overnight cultures 1:333 and 1:666, respectively, with fresh Mueller-Hinton broth . A volume of 50 µL of the inocula was added to each well. […] The exact inocula were determined by applying […] of 10-fold serial dilution of the bacterial suspensions on TSA. After overnight incubation at 35 °C, colony forming units were manually counted.
(§4) Microtiter plates were incubated during 24 h at 35 °C and were read using a microtiterplate reader (Molecular Devices) at 650 nm as well as by visual observation using a microtiterplate reading mirror.

[3] = test system: S. aureus ATCC 13709 (Meth^S); assay: Broth microdilution MIC (NCCLS); type: cell-based; conditions: Staphylococcus aureus, ATCC13709, Mueller-Hinton Broth, 24 h at 35 °C
Protocol: as §1, §2, §3, §4

[4] = test system: E. faecalis VanB (Van^R); assay: Broth microdilution MIC (NCCLS); type: cell-based; conditions: Enterococcus faecalis, Mueller-Hinton Broth, 24 h at 35 °C
Protocol: as §1, §2, §3, §4

[5] = test system: E. faecium A491 (Amp^R); assay: Broth microdilution MIC (NCCLS); type: cell-based; conditions: Enterococcus faecium, Mueller-Hinton Broth, 24 h at 35 °C
Protocol: as §1, §2, §3, §4

Structure (SMILES)	degraded at 1 h [1] [%]	stability in rat serum (statement in words) [1]	MIC [2] [µg/mL]	MIC [3] [µg/mL]	MIC [4] [µg/mL]	MIC [5] [µg/mL]
NCCSCc1ccncc1SC1=C(C(=O)O)N2C(=O)[C@@H](NC(=O)/C(=N\O)c3nc(N)sc3Cl)[C@H]2SC1 [Cmpd 3, (7R)-7-[(Z)-2-(2-amino-5-chlorothiazol-4-yl)-2-(hydroxyimino)acetamido]-3-[4-(2-aminoethylthiomethyl)pyrid-3-ylthio]-3-cephem-4-carboxylic acid]	3	improved stability	1 (≈ 1.66 µM)	0.13 (≈ 0.216 µM)	0.5 (≈ 0.83 µM)	32 (≈ 53.1 µM)
NCCSCc1ncccc1SC1=C(C(=O)O)N2C(=O)[C@@H](NC(=O)/C(=N\O)c3nc(N)sc3Cl)[C@H]2SC1 [Cmpd 1, (7R)-7-[(Z)-2-(2-amino-5-chlorothiazol-4-yl)-2-(hydroxyimino)acetamido]-3-[2-(2-aminoethylthiomethyl)pyrid-3-ylthio]-3-cephem-4-carboxylic acid]	9	improved stability	1 (≈ 1.66 µM)	0.13 (≈ 0.216 µM)	0.13 (≈ 0.216 µM)	8 (≈ 13.3 µM)
N=C(N)NCCSCc1ncccc1SC1=C(C(=O)O)N2C(=O)[C@@H](NC(=O)/C(=N\O)c3nsc(N)n3)[C@H]2SC1 [Cmpd 2-R, (7R)-7-[(Z)-2-(5-amino-1,2,4-thiadiazol-3-yl)-2-(hydroxyimino)acetamido]-3-[2-(2-guanidinoethylthiomethyl)pyrid-3-ylthio]-3-cephem-4-carboxylic acid]	10	improved stability	1 (≈ 1.64 µM)	0.13 (≈ 0.213 µM)	–	32 (≈ 52.4 µM)
N=C(N)NCCSCc1ncccc1SC1=C(C(=O)O)N2C(=O)[C@@H](NC(=O)/C(=N\O)c3nc(N)sc3Cl)[C@H]2SC1 [Cmpd 2-S, (7R)-7-[(Z)-2-(2-amino-5-chlorothiazol-4-yl)-2-(hydroxyimino)acetamido]-3-[2-(2-guanidinoethylthiomethyl)pyrid-3-ylthio]-3-cephem-4-carboxylic acid]	38	improved stability	0.5 (≈ 0.776 µM)	0.06 (≈ 0.0931 µM)	0.06 (≈ 0.0931 µM)	4 (≈ 6.21 µM)
NCCSCc1ncccc1SC1=C(C(=O)O)N2C(=O)[C@@H](NC(=O)/C(=N\O)c3nsc(N)n3)[C@H]2SC1 [Cmpd 2, (7R)-7-[(Z)-2-(5-amino-1,2,4-thiadiazol-3-yl)-2-(hydroxyimino)acetamido]-3-[2-(2-aminoethylthiomethyl)pyrid-3-ylthio]-3-cephem-4-carboxylic acid]	2	improved stability	1 (≈ 1.76 µM)	–	0.5 (≈ 0.879 µM)	> 32
